The results in this text go back to patent US8937089B2, “Synergistic mixtures of anthranilamide invertebrate pest control agents” (priority 2004, dated 2015).

Experiment in all cases: whole plant or invertebrate
What all share (assay type): in vivo

Data set [1] deals with western flower thrip (Frankliniella occidentalis Pergande). The note with it: for mortality at 10 ppm: rate 10 ppm. How it is done: (§1) Test compounds were formulated using a solution containing 10% acetone, 90% water and 300 ppm X-77® Spreader Lo-Foam Formula non-ionic surfactant containing alkylarylpolyoxyethylene, free fatty acids, glycols and 2-propanol (Loveland Industries, Inc.) to provide the desired concentration in ppm. Formulated test solutions were then applied in 1 mL volumes through a SUJ2 atomizer nozzle with 1/8 JJ custom body (Spraying Systems Co.) positioned 1.27 cm (0.5 inches) above the top of each test unit.
For evaluating control of the western flower thrip (Frankliniella occidentalis Pergande) through contact and/or systemic means, each test unit consisted of a small open container with a 5- to 7-day-old bean (var. Soleil) plant inside.
Test solutions were formulated and sprayed with 3 replications as described for Test A. After spraying, the test units were allowed to dry for 1 hour, 22 to 27 adult thrips were added to each unit and then a black, screened cap was placed on top. The test units were held for 7 days at 25° C. and 45-55% relative humidity.

The test system of data set [2] is green peach aphid (Myzus persicae Sulzer). The conditions noted are these: for mortality at 1000 ppm: rate 1000 ppm. As to the method: as §1
For evaluating control of green peach aphid (Myzus persicae Sulzer) through contact and/or systemic means, each test unit consisted of a small open container with a 12- to 15-day-old radish plant inside. This was pre-infested by placing on a leaf of the test plant 30 to 40 aphids on a piece of leaf excised from a culture plant (cut-leaf method). The larvae moved onto the test plant as the leaf piece desiccated. After pre-infestation, the soil of the test unit was covered with a layer of sand.
Test compounds were formulated and sprayed as described in Test A, replicated three times. After spraying of the formulated test compound, each test unit was allowed to dry for 1 hour and then a black, screened cap was placed on top. The test units were held for 6 days in a growth chamber at 19-21° C. and 50-70% relative humidity.

Data set [3] has as its system silverleaf whitefly (Bemisia argentifolii Bellows and Perring).
Source text: For evaluating control of silverleaf whitefly (Bemisia argentifolii Bellows and Perring) through contact and/or systemic means, each test unit consisted of a small open container with a 12- to 14-day-old cotton plant inside. This was pre-infested by placing test units into cages infested with adult whiteflies so that oviposition on the cotton leaves could occur. The adults were removed from the plants with an air-blast nozzle, and the test units were capped. The test units were then stored 2 to 3 days before spraying.
as §1
The results for all experimental compositions in this test were replicated three times. After spraying of the formulated test composition, each test unit was allowed to dry for 1 hour and the cap removed. The test units were held for 13 days in a growth chamber at 28° C. and 50-70% relative humidity.

For data set [4], the system named is potato leafhopper (Empoasca fabae Harris). The note with it: for mortality at 2 ppm: rate 2 ppm. How it is done:
as §1
[…] White sand was added to the top of the soil, and one of the primary leaves was excised prior to application. Test compounds were formulated and sprayed with 3 replications as described for Test A. After spraying, the test units were allowed to dry for 1 hour before they were infested with 5 potato leafhoppers (18- to 21-day-old adults). A black, screened cap was placed on the top of each container. The test units were held for 6 days in a growth chamber at 19-21° C. and 50-70% relative humidity.

The test system of data set [5] is cotton melon aphid (Aphis gossypii Glover). The conditions noted are these: for mortality at 500 ppm: rate 500 ppm. How it is done: as §1
For evaluating control of cotton melon aphid (Aphis gossypii Glover) through contact and/or systemic means, each test unit consisted of a small open container with a 6- to 7-day-old cotton plant inside. This was pre-infested by placing on a leaf of the test plant 30 to 40 aphids on a piece of leaf excised from a culture plant (cut-leaf method). The larvae moved onto the test plant as the leaf piece desiccated. After pre-infestation, the soil of the test unit was covered with a layer of sand.
Test compounds were formulated and sprayed as described for Test A. The applications were replicated three times. After spraying of the formulated test compounds, each test unit was allowed to dry for 1 hour and then a black, screened cap was placed on top. The test units were held for 6 days in a growth chamber at 19-21° C. and 50-70% relative humidity.

Data set [6] concerns corn planthopper (Peregrines maidis). As to the method:
as §1
For evaluating control of corn planthopper (Peregrines maidis) through contact and/or systemic means, each test unit consisted of a small open cylindrical container with a 3- to 4-day-old corn (maize) plant (spike) inside. White sand was added to the top of the soil prior to application. Test compounds were formulated and sprayed with 3 replications as described for Test A. After spraying, the test units were allowed to dry for 1 hour before they were post-infested with 10 to 20 corn planthoppers (18- to 20-day-old nymphs) by sprinkling them onto the sand with a salt shaker. A black, screened cap was placed on the top of each container. The test units were held for 6 days in a growth chamber at 19-21° C. and 50-70% relative humidity.

[7] abbreviates: Frankliniella occidentalis, 168 h, single compound, spray, 7 days, read-out: % mortality (obs).
The mark [8] stands for this setting: Frankliniella occidentalis, 168 h, rate 500 ppm, single compound, spray, 7 days, read-out: % mortality (obs).
Where [9] appears, read: Myzus persicae, in Raphanus sativus, Green Peach Aphid, read-out: % mortality (obs).
Where [10] appears, read: Bemisia argentifolii, in Gossypium hirsutum, Table 2B, rate 10 ppm, read-out: % mortality (obs).
The mark [11] stands for this setting: Empoasca fabae, alone, read-out: % mortality (obs).
The mark [12] stands for this setting: Aphis gossypii, read-out: % mortality (obs).

Molecules are shown by their SMILES. Where two headings read alike, the source gives them in different places.

The term mortality denotes the percentage killed. For the compound `CC1(C)CNC(=NN=C(/C=C/c2ccc(C(F)(F)F)cc2)/C=C/c2ccc(C(F)(F)F)cc2)NC1` [Hydramethylnon], the mortality at 10 ppm in data set [1] (setting [7]) was determined as 60%; in data set [3] (setting [10]), 2%. Moreover, the mortality at 500 ppm in data set [1] (setting [8]) worked out at 50%; in data set [2] (Myzus persicae, in Raphanus sativus, Green Peach Aphid, rate 500 ppm, read-out: % mortality (obs)) it was 18%; in data set [5] (setting [12]), 21%. The mortality at 1000 ppm in data set [1] (Frankliniella occidentalis, 168 h, rate 1000 ppm, single compound, spray, 7 days, read-out: % mortality (obs)) turned out to be 40%; in data set [2] (setting [9]), 8%; in data set [3] (Bemisia argentifolii, in Gossypium hirsutum, Table 2B, rate 1000 ppm, read-out: % mortality (obs)) it was 0%; in data set [5] (Aphis gossypii, rate 1000 ppm, read-out: % mortality (obs)), 40%. For the same compound, the mortality at 1500 ppm in data set [2] (Myzus persicae, in Raphanus sativus, Green Peach Aphid, rate 1500 ppm, read-out: % mortality (obs)) is 7%; in data set [5] (Aphis gossypii, rate 1500 ppm, read-out: % mortality (obs)) it was 39%. Further, the mortality at 100 ppm in data set [3] (Bemisia argentifolii, in Gossypium hirsutum, Table 2B, rate 100 ppm, read-out: % mortality (obs)) is 1%. Moreover, the mortality at 0.01 ppm was found to be 0% in data set [4] (Empoasca fabae, rate 0.01 ppm, alone, read-out: % mortality (obs)) and 7% in data set [6] (Corn Plant Hopper, rate 0.01 ppm, read-out: % mortality (obs)). The mortality at 1 ppm amounted to 27% in data set [4] (Empoasca fabae, rate 1 ppm, alone, read-out: % mortality (obs)) and 1% in data set [6] (Corn Plant Hopper, rate 1 ppm, read-out: % mortality (obs)). For the same compound, the mortality at 2 ppm is 60% in data set [4] (setting [11]) and 6% in data set [6] (Corn Plant Hopper, rate 2 ppm, read-out: % mortality (obs)).
As to `O=[N+]([O-])NC1=NCCN1Cc1ccc(Cl)nc1` [Imidacloprid], the mortality at 11 ppm in data set [1] (Frankliniella occidentalis, Table 3A, Imidacloprid 11 ppm, read-out: % Mortality (observed)) came out at 20%. Moreover, in data set [1] (Frankliniella occidentalis, Table 3A, Imidacloprid 77 ppm, read-out: % Mortality (observed)), the mortality at 77 ppm was 37%. Also, in data set [1] (Frankliniella occidentalis, Table 3A, Imidacloprid 561 ppm, read-out: % Mortality (observed)), the mortality at 561 ppm was found to be 90%. Also, the mortality at 0.08 ppm in data set [2] (Myzus persicae, in Raphanus sativus, Table 7A, Imidacloprid 0.08 ppm, read-out: % Mortality (observed)) was 4%. Further, the mortality at 0.15 ppm in data set [2] (Myzus persicae, in Raphanus sativus, Table 7A, Imidacloprid 0.15 ppm, read-out: % Mortality (observed)) came out at 12%. Further, the mortality at 0.26 ppm in data set [2] (Myzus persicae, in Raphanus sativus, Table 7A, Imidacloprid 0.26 ppm, read-out: % Mortality (observed)) amounted to 50%. In data set [3] (Bemisia argentifolii, in Gossypium hirsutum, Table 2A, Imidacloprid 10 ppm, read-out: % Mortality (observed)), the mortality at 10 ppm worked out at 1%. For the same compound, the mortality at 22 ppm in data set [3] (Bemisia argentifolii, in Gossypium hirsutum, Table 2A, Imidacloprid 22 ppm, read-out: % Mortality (observed)) worked out at 2%. In addition, the mortality at 48 ppm in data set [3] (Bemisia argentifolii, in Gossypium hirsutum, Table 2A, Imidacloprid 48 ppm, read-out: % Mortality (observed)) was determined as 25%. In addition, the mortality at 0.2 ppm in data set [4] (Empoasca fabae, Table 4A, Imidacloprid 0.2 ppm, read-out: % Mortality (observed)) was 20%. For the same compound, the mortality at 0.4 ppm in data set [4] (Empoasca fabae, Table 4A, Imidacloprid 0.4 ppm, read-out: % Mortality (observed)) is 0%. Also, the mortality at 1 ppm in data set [4] (Empoasca fabae, Table 4A, Imidacloprid 1 ppm, read-out: % Mortality (observed)) was 20%; in data set [6] (Table 5A, Imidacloprid 1 ppm, read-out: % Mortality (observed)), 60%. Moreover, the mortality at 0.05 ppm in data set [5] (Aphis gossypii, Table 6A, Imidacloprid 0.05 ppm, read-out: % Mortality (observed)) worked out at 12%. Moreover, the mortality at 0.3 ppm in data set [5] (Aphis gossypii, Table 6A, Imidacloprid 0.3 ppm, read-out: % Mortality (observed)) came to 10%; in data set [6] (Table 5A, Imidacloprid 0.3 ppm, read-out: % Mortality (observed)) it was 37%. In addition, in data set [5] (Aphis gossypii, Table 6A, Imidacloprid 2.1 ppm, read-out: % Mortality (observed)), the mortality at 2.1 ppm was found to be 40%. Moreover, the mortality at 0.1 ppm in data set [6] (Table 5A, Imidacloprid 0.1 ppm, read-out: % Mortality (observed)) turned out to be 27%.
Turning to `COc1cccc(C(=O)NN(C(=O)c2cc(C)cc(C)c2)C(C)(C)C)c1C` [Methoxyfenozide], the mortality at 10 ppm was found to be 60% in data set [1] (setting [7]); 7% in data set [2] (Myzus persicae, in Raphanus sativus, Green Peach Aphid, rate 10 ppm, read-out: % mortality (obs)); 2% in data set [3] (setting [10]); 7% in data set [6] (Corn Plant Hopper, rate 10 ppm, read-out: % mortality (obs)). Further, the mortality at 100 ppm in data set [1] (Frankliniella occidentalis, 168 h, rate 100 ppm, single compound, spray, 7 days, read-out: % mortality (obs)) was 60%; in data set [2] (Myzus persicae, in Raphanus sativus, Green Peach Aphid, rate 100 ppm, read-out: % mortality (obs)) it was 17%; in data set [6] (Corn Plant Hopper, rate 100 ppm, read-out: % mortality (obs)), 2%. Further, the mortality at 500 ppm in data set [1] (setting [8]) came out at 60%; in data set [5] (setting [12]) it was 38%. Also, the mortality at 1000 ppm in data set [2] (setting [9]) was 6%; in data set [6] (Corn Plant Hopper, rate 1000 ppm, read-out: % mortality (obs)) it was 10%. Moreover, the mortality at 2 ppm in data set [3] (Bemisia argentifolii, in Gossypium hirsutum, Table 2B, rate 2 ppm, read-out: % mortality (obs)) worked out at 1%; in data set [4] (setting [11]) it was 20%. Besides, the mortality at 50 ppm came to 1% in data set [3] (Bemisia argentifolii, in Gossypium hirsutum, Table 2B, rate 50 ppm, read-out: % mortality (obs)) and 54% in data set [5] (Aphis gossypii, rate 50 ppm, read-out: % mortality (obs)). Moreover, the mortality at 0.08 ppm in data set [4] (Empoasca fabae, rate 0.08 ppm, alone, read-out: % mortality (obs)) came to 13%. Moreover, the mortality at 0.4 ppm in data set [4] (Empoasca fabae, rate 0.4 ppm, alone, read-out: % mortality (obs)) amounted to 13%. Moreover, the mortality at 5 ppm in data set [5] (Aphis gossypii, rate 5 ppm, read-out: % mortality (obs)) amounted to 32%.
For `CCN(Cc1ccc(Cl)nc1)/C(=C/[N+](=O)[O-])NC` [Nitenpyram], the “% mortality (obs)” value in data set [1] (rate 5 ppm, single compound, spray, 7 days) was found to be 20%; in data set [1] (rate 50 ppm, single compound, spray, 7 days), 50%; in data set [1] (rate 500 ppm, single compound, spray, 7 days), 80%; in data set [2] (Green Peach Aphid, rate 0.2 ppm), 7%; in data set [2] (Green Peach Aphid, rate 0.4 ppm), 17%; in data set [2] (Green Peach Aphid, rate 0.6 ppm), 40%. Also, the “% mortality (obs)” value in data set [3] (Table 2B, rate 20 ppm) came to 53%; in data set [3] (Table 2B, rate 30 ppm) it was 84%; in data set [3] (Table 2B, rate 40 ppm), 85%; in data set [4] (rate 0.3 ppm, alone), 7%; in data set [4] (rate 0.4 ppm, alone), 73%; in data set [4] (rate 0.5 ppm, alone) it was 33%. Moreover, the “% mortality (obs)” value is on record as 29% in data set [5] (rate 0.2 ppm); 49% in data set [5] (rate 0.4 ppm); 71% in data set [5] (rate 0.6 ppm); 27% in data set [6] (Corn Plant Hopper, rate 0.1 ppm); 100% in data set [6] (Corn Plant Hopper, rate 0.2 ppm); 100% in data set [6] (Corn Plant Hopper, rate 0.3 ppm).
